Experimental data as given in ChEMBL document CHEMBL3217736, “Novel aspects in structureactivity relationships of profiled 1-aza-9-oxafluorenes as inhibitors of Alzheimer's disease-relevant kinases cdk1, cdk5 and gsk3” (Medchemcomm, 2012).
pKi: −log10 of the molar value. Activity calls are given as the source filed them. No cut-off for these calls is given here.

What was measured:
[1] = target: Cyclin-dependent kinase 1/cyclin B1 (Homo sapiens, UniProt P06493); experiment: (§1) Inhibition of human recombinant GST-fused CDK1/cyclin B expressed in insect Sf9 cells using RBER-CHKtide as substrate assessed as incorporation of 33Pi after 60 mins by microplate scintillation counting analysis
[2] = target: Cyclin-dependent kinase 5/CDK5 activator 1 (Homo sapiens, UniProt Q00535); experiment: (§2) Inhibition of human recombinant GST-fused CDK5/P25 expressed in insect Sf9 cells using RBER-CHKtide as substrate assessed as incorporation of 33Pi after 60 mins by microplate scintillation counting analysis
[3] = target: Glycogen synthase kinase-3 beta (Homo sapiens, UniProt P49841); experiment: Inhibition of human recombinant GST-fused GSK-3beta expressed in insect Sf9 cells using RBER-CHKtide as substrate assessed as incorporation of 33Pi after 60 mins by microplate scintillation counting analysis; conditions: for pKi: read-out: Ki; for Ki: sf9
[4] = target: Cyclin-dependent kinase 1/cyclin B1 (Homo sapiens) (UniProt P06493+P14635); experiment: as §1
[5] = target: Cyclin-dependent kinase 5/CDK5 activator 1 (Homo sapiens) (UniProt Q00535+Q15078); experiment: as §2
Sequence of Cyclin-dependent kinase 5/CDK5 activator 1 (Homo sapiens) (Q00535 whole entry): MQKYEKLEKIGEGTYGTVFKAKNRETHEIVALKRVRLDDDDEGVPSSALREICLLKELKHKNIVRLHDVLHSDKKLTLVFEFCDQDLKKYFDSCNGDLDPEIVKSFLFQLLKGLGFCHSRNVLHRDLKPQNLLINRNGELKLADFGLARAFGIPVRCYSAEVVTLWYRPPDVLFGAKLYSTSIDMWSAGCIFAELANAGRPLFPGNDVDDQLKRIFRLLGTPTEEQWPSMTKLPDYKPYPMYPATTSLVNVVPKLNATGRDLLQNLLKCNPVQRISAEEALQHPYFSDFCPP
Sequence of Cyclin-dependent kinase 5/CDK5 activator 1 (Homo sapiens) (Q15078 99-307 partner limits assumed): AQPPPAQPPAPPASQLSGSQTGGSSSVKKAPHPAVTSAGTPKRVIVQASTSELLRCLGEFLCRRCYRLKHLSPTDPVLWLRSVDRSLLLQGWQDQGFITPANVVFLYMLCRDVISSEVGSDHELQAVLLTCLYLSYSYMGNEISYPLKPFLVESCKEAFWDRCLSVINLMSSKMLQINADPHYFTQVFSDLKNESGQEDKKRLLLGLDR

Sequence of Cyclin-dependent kinase 5/CDK5 activator 1 (Q00535 whole entry, the tested form may be a part): as the sequence (Q00535 whole entry) above
Sequence of Cyclin-dependent kinase 5/CDK5 activator 1 (Q15078 whole entry, further chain, the tested form may be a part): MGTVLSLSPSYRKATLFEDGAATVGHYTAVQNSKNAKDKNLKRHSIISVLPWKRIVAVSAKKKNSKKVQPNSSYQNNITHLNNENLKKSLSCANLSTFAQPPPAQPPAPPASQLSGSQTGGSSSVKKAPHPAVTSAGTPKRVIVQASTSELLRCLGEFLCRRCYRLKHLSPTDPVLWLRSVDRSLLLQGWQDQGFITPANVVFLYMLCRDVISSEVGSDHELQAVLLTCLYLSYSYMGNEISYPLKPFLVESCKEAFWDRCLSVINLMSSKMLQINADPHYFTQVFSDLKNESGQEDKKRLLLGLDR
Sequence of Cyclin-dependent kinase 1/cyclin B1 (P06493 whole entry, the tested form may be a part): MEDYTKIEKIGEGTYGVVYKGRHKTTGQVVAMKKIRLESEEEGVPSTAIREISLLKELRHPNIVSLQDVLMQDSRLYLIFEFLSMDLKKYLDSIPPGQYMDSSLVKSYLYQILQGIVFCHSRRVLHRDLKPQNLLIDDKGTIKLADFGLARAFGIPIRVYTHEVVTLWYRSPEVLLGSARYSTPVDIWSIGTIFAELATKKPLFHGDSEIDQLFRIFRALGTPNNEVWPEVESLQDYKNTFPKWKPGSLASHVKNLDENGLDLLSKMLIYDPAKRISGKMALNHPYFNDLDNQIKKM
Sequence of Cyclin-dependent kinase 1/cyclin B1 (P14635 whole entry, further chain, the tested form may be a part): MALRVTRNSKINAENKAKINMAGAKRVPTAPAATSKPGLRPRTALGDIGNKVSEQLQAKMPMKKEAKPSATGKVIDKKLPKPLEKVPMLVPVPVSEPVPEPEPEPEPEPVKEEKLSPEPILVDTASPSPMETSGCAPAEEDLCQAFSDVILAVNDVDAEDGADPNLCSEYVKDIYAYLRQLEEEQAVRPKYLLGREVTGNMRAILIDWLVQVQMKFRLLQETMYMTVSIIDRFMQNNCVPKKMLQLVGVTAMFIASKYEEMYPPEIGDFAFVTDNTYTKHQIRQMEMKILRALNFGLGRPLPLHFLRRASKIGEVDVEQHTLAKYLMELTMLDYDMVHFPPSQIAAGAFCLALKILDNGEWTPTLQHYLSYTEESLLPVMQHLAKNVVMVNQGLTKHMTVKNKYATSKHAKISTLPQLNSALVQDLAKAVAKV
Sequence of Cyclin-dependent kinase 1/cyclin B1 (Homo sapiens) (P06493 whole entry, looked up): as the sequence (P06493 whole entry, the tested form may be a part) above
Sequence of Cyclin-dependent kinase 1/cyclin B1 (Homo sapiens) (P14635 whole entry, looked up): as the sequence (P14635 whole entry, further chain, the tested form may be a part) above

pKi [1]	pKi [2]	pKi [3]	inhibition [4]	inhibition [5]	inhibition [3]	Ki [3]	SMILES
–	–	–	Active	Active	Active	–	Oc1ccc2oc3ncc(OCc4ccccc4)c(-c4ccccc4)c3c2c1
< 3.00	< 3.00	5.05	–	–	–	–	CNC(=O)c1cnc2oc3ccc(O)cc3c2c1-c1ccccc1
5.72	4.86	–	–	–	–	ND(Insoluble)	COc1cc2oc3ncc(OCc4ccccc4)c(-c4ccccc4)c3c2cc1O
–	4.60	–	–	–	–	–	COc1ccc2oc3ncc(OCc4ccccc4)c(-c4ccccc4)c3c2c1

The remaining lines, values behind:

SMILES	pKi [1]	pKi [2]	pKi [3]	inhibition [4]	inhibition [5]	inhibition [3]	Ki [3]
NCCNC(=O)c1cnc2oc3ccc(O)cc3c2c1-c1ccccc1	5.70	4.89	5.32	–	–	–	–
COc1cc2c(oc3ncc(OCc4ccccc4)c(-c4ccccc4)c32)c2ccccc12	< 3.00	< 3.00	< 3.00	–	–	–	–
COc1cc2oc3ncc(OCc4ccccc4)c(-c4ccccc4)c3c2c(OC)c1O	6.70	4.87	5.27	–	–	–	–
CCCNC(=O)c1cnc2oc3ccc(O)cc3c2c1-c1ccccc1	5.80	4.84	5.36	–	–	–	–
CCNC(=O)c1cnc2oc3ccc(O)cc3c2c1-c1ccccc1	5.68	4.78	–	–	–	–	ND(Insoluble)
